Measured values from article PMC7336998, “Discovery of secondary sulphonamides as IDO1 inhibitors with potent antitumour effects in vivo” (Journal of Enzyme Inhibition and Medicinal Chemistry, 2020).
“Also recorded” adds a separate entry of the source.

Experiments:
CT26 colon carcinoma = CT26 colon carcinoma xenograft in immunodeficient BALB/c nude mice; format: in vivo, mouse
Protocol: Eight-week-old male BALB/c nude mice, weighing 18–22 g, were supplied by Model Animal Research Centre of Nanjing University (Nanjing, China). 1 × 10^7/ml and 1 × 10^6 CT26 cells (in 0.1 ml PBS) were injected subcutaneously into the right flanks of mice. After CT26 xenograft BALB/c nude mouse model was established, all mice were randomly divided into three groups (n = 8). 5d (12.5 mg/kg) were administered (i.g) every day and 5-FU (25 mg/kg) awere administered (i.p) every three days. The following experimental procedures were similar to the described above.
For immunohistochemistry staining, the sections were deparaffinized, rehydrated, and washed in 1% PBS-Tween 20, and then treated with 2% hydrogen peroxide, blocked with 3% goat serum (Life Technology, 16210–064) and incubated for 2 h at room temperature with specific primary antibodies. Then the slides were incubated with streptavidin-HRP (Shanghai Gene Company, GK500705) for 40 min, then stained with DAB (Shanghai Gene Company, GK500705) substrate and counter-stained with haematoxylin. Images were acquired by microscopy (Olympus IX51).
Then, in order to clarify whether the in vivo antitumour efficacy of compound 5d was related to the mouse immune system, we repeated the above experiment in immunodeficient nude mice. Briefly, BALB/c nude mice bearing established CT26 colon carcinoma xenograft were treated with compound 5d and 5-FU for 10 days.
Figure 8. […] 1 × 10^6 CT26 cells were transplanted subcutaneously into the armpit of immunodeficient BALB/c nude mice. Three days after transplantation, mice were randomly allocated to vehicle control or treatment groups (n = 8). Drugs were administered on days 1–9. (A) Tumour volume and mouse body weight (B) were recorded. After sacrifice, solid tumours were separated and weighed (C, D). Data represent mean ± SEM, n = 8, *p < 0.05, **p < 0.01 vs vehicle.
To verify the above conclusions, we further performed H&E and IHC staining on the nude mouse CT26 tumour tissues. […] These findings further supported the above conclusions.

[1] = molecular target: T1, IDO1 protein in HeLa cells (Homo sapiens, UniProt P14902); experiment: Cellular thermal shift assay (CETSA); format: binding; conditions: IFN-γ 100 ng/mL 24 h, compound 2 h, 43-70 °C, Western blot
T1 construct: a human cervical cancer cell line HeLa that endogenously expresses IDO1 upon IFN-γ treatment; endogenous in cells; host or cells: HeLa cells treated with human IFN-γ
Protocol: HeLa cells were seeded in 6-well culture plates at a density of 2 × 10^5 per well. On the next day, human IFN-γ (100 ng/mL) were added and incubated for 24 h, and then the cells were treated with 5d for 2 h. At the end of incubation, cells collected and subjected to CETSA assay. Briefly, incubated cells were equally divided into 10 parts, each part was heated for 3 min under different temperature (43, 46, 49, 52, 55, 58, 61, 64, 67, and 70 °C), and then the heated cells were kept at −80 °C for 12 h, then at room temperature for 5 min, and the process repeated one more time. After that, cell lysates were extracted by centrifugation at 20,000 × g, 20 min. Levels of IDO1 protein were assessed by Western blot analysis.
The cellular thermal shift assay (CETSA) is usually used to identify compounds and their potential targets. CESTA can detect the target engagement of drugs in a cellular context based on the biophysical principle of ligand-induced thermal stabilisation of target proteins. To this end, we further employed the CETSA assay to detect whether compound 5d could directly bind to the target protein IDO1 in HeLa cells.
Figure 6. Compound 5d could bind to IDO1 protein in HeLa cells. HeLa cells were treated with human IFN-γ (100 ng/mL) for 24 h, and then treated with 5d for 2 h. […] The levels of IDO1 protein were assessed by Western blot analysis.

[2] = nude mouse CT26 tumour tissue, 12.5 mg/kg i.g

T1 sequence (P14902 whole entry): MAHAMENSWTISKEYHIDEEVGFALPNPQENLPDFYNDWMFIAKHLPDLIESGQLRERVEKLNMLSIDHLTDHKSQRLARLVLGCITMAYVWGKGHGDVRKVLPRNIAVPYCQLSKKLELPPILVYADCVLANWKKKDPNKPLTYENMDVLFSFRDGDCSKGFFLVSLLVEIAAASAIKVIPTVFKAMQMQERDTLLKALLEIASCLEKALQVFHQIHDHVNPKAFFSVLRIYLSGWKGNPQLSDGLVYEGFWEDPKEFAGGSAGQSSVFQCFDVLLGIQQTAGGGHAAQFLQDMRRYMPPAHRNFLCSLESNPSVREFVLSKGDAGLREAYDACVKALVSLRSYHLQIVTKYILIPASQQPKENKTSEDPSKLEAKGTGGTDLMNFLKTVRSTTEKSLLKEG

## C=CC(=O)Nc1ccc(S(=O)(=O)NCc2cccc(Cl)c2)cc1 [5d, N-(4-(N-(3-Chlorobenzyl)sulfamoyl)phenyl)acrylamide]
CT26 colon carcinoma; BALB/c nude mice, 12.5 mg/kg i.g every day, vs vehicle
  tumour growth: did not block tumour growth
CT26 colon carcinoma; [2]
  expression of PCNA: had no influence on the expression of PCNA
  tumour cell morphology (H&E staining): remained intact morphology
[1]
  thermal stability of IDO1 protein: improve the thermal stability of IDO1 protein; also recorded: still maintained the protein stability at 55 °C
